Article PMC7617971, “OmpA Specifically Modulates the Activity of Enzymes that Reside in the Crowded Bacterial Outer Membrane” (Journal of molecular biology, 2025)

How the values were obtained:
OmpLA = biological target: T1, OmpLA (Escherichia coli, UniProt P0A921); assay: free fatty acid release by ANS displacement from BSA (fluorescence); type: biochemical; settings: DMPG proteoliposomes, CaCl2 added to start, 30 °C
T1 construct: gene pldA; functional dimer, needs divalent cation

PagP = biological target: T2, PagP (Escherichia coli, UniProt P37001); assay: colorimetric release of 4-nitrophenol, A410; type: biochemical; settings: DMPG proteoliposomes, pH 8.5, 2 M urea, room temperature; substrate delivered with methyl-beta-cyclodextrin
T2 sequence (P37001 26-186): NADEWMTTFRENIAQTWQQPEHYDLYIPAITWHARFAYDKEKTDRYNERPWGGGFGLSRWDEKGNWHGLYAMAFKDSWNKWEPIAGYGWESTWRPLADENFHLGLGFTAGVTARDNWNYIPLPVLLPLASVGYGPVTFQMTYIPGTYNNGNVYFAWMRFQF

T1 sequence (P0A921 21-289): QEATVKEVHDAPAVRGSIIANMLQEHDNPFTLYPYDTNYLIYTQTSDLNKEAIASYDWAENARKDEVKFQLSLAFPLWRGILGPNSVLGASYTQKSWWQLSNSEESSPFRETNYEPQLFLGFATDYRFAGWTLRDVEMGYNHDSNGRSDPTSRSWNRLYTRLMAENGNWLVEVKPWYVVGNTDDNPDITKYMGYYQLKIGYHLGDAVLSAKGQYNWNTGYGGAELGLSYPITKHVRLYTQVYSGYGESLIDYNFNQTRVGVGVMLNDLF

Row | Compound | free fatty acid release by ANS displacement from BSA (fluorescence) (OmpLA) | colorimetric release of 4-nitrophenol, A410 (PagP)
1 | CCCCCCCCCCCCCC(=O)OC[C@H](COP(=O)(O)OCC(O)CO)OC(=O)CCCCCCCCCCCCC (some centres unmarked) [DMPG] | the phospholipase activity of OmpLA was measured in DMPG proteoliposomes | –
2 | CCCCCCCCCCCCCCCC(=O)Oc1ccc([N+](=O)[O-])cc1 [palmitate-4-nitrophenol] | – | MβCD facilitates the rapid delivery of the pNP PagP substrate into liposome bilayers
